Experimental data from US10336766B2, “Anticancer drug candidates” (THE SCRIPPS RESEARCH INSTITUTE, priority 2015, dated 2019).
Like-named read-outs stand apart in the source and are kept apart here.

Assays:
Format in all cases: cell-based, human
[1] = tested on: central nervous system cell line SF-539; test: In vitro cytotoxic activity, CELLTITER 96 AQueous One Solution (MTS) assay, SF-539; conditions: 72 h treatment, mean ± SD of 3 replicates, read-out: IC50 cytotoxicity, SF-539
Procedure: (§1) The in vitro cytotoxic activity (IC50, half maximal inhibitory concentration) of the tiancimycins was tested against selected human cancer cell lines, such as breast cancer cells MDA-MB-468, melanoma cell M14 and SK-MEL-5, non-small cell lung cancer cell NCI-H226, central nervous system cell lines SF-295 and SF-539, and the known enediyne UCM was used as a comparison. Suspended cultures of cells were diluted to a concentration of 5×10^4 cells mL^−1 in RPMI 1640 medium supplemented with 10% fetal bovine serum, 100 μgmL^−1 streptomycin, and 100 UmL^−1 penicillin. The suspended cultures were dispensed into 96-well microtiter plates (100 μL per well) and the plates were incubated for 24 hours at 37° C. in an atmosphere of 5% CO2, 95% air, and 100% humidity. After incubation, original medium was removed and 100 μL of fresh medium was added, followed by adding serial dilutions of the tiancimycins (A, B, and C, 1 μl) and UCM (1 μl) in DMSO. The concentration of the tested compounds was ranged from 0 to 100 nM. Plates were incubated under the above conditions for 72 hours. After incubation, 20 μl CELLTITER 96® AQueous One Solution Reagent (Promega Corp, Madison, Wis., USA) was added to the plates and incubated at 37° C. in a humidified, 5% CO2 atmosphere for 30 to 60 min. The absorbance at 490 nm was recorded using an ELISA plate reader. Each point represents the mean±SD of 3 replicates. The IC50 was determined by computerized curve fitting.
(§2) Antitumor activities were assessed using CELLTITER 96® Aqueous One Solution Proliferation Assay (MTS) (Promega Corp.). Cells were plated in 96-well plate at 5000 cells/well and allowed to adhere overnight at 37° C. in a humidified atmosphere of 5% CO2. Medium was then removed and replaced by fresh culture medium containing different concentrations of different drugs. The cells were treated for 72 h before the assay was developed. All assay values were measured in triplicate.

[2] = tested on: central nervous system cell line SF-295; test: In vitro cytotoxic activity, CELLTITER 96 AQueous One Solution (MTS) assay, SF-295; conditions: 72 h treatment, mean ± SD of 3 replicates, read-out: IC50 cytotoxicity, SF-295
Procedure: as §1, §2

melanoma cell SK-MEL-5 = test: In vitro cytotoxic activity, CELLTITER 96 AQueous One Solution (MTS) assay, SK-MEL-5; conditions: 72 h treatment, mean ± SD of 3 replicates, read-out: IC50 cytotoxicity, SK-MEL-5
Procedure: as §1, §2

melanoma cell M14 = test: In vitro cytotoxic activity, CELLTITER 96 AQueous One Solution (MTS) assay, M14; conditions: 72 h treatment, mean ± SD of 3 replicates, read-out: IC50 cytotoxicity, M14
Procedure: as §1, §2

[3] = tested on: non-small cell lung cancer cell NCI-H226; test: In vitro cytotoxic activity, CELLTITER 96 AQueous One Solution (MTS) assay, NCI-H226; conditions: 72 h treatment, mean ± SD of 3 replicates, read-out: IC50 cytotoxicity, NCI-H226
Procedure: as §1, §2

[4] = tested on: breast cancer cells MDA-MB-468; test: In vitro cytotoxic activity, CELLTITER 96 AQueous One Solution (MTS) assay, MDA-MB-468; conditions: 72 h treatment, mean ± SD of 3 replicates, read-out: IC50 cytotoxicity, MDA-MB-468
Procedure: as §1, §2

COc1ccc2c(c1O)C(=O)c1c3c(cc(O)c1C2=O)C12O[C@@]1([C@@H](C)O)[C@H](C#C/C=C\C#C[C@H]2O)N3 [TNM A, tiancimycin A]
IC50 ([1]; Homo sapiens): 0.3 ± 0.08 nM
IC50 ([2]; Homo sapiens): 0.14 ± 0.01 nM
IC50 (melanoma cell SK-MEL-5; Homo sapiens): 0.19 ± 0.01 nM
IC50 (melanoma cell M14; Homo sapiens): 0.14 ± 0.01 nM
IC50 ([3]; Homo sapiens): 2.3 ± 0.1 nM
IC50 ([4]; Homo sapiens): 0.1 ± 0.01 nM

COC(=O)/C=C(\C)[C@@]12OC13c1cc(O)c4c(c1N[C@H]2C#C/C=C\C#C[C@H]3O)C(=O)c1ccccc1C4=O [TNM B, tiancimycin B]
IC50 ([1]; Homo sapiens): 0.23 ± 0.05 nM
IC50 ([2]; Homo sapiens): 0.26 ± 0.02 nM
IC50 (melanoma cell SK-MEL-5; Homo sapiens): 0.19 ± 0.04 nM
IC50 (melanoma cell M14; Homo sapiens): 0.24 ± 0.01 nM
IC50 ([3]; Homo sapiens): 2.8 ± 0.1 nM
IC50 ([4]; Homo sapiens): 0.1 ± 0.01 nM

COC(=O)C(O)C(C)(O)[C@@]12OC13c1cc(O)c4c(c1N[C@H]2C#C/C=C\C#C[C@H]3O)C(=O)c1c(ccc(O)c1O)C4=O (stereo partly drawn) [TNM C, tiancimycin C]
IC50 ([1]; Homo sapiens): 0.3 ± 0.05 nM
IC50 ([2]; Homo sapiens): 0.28 ± 0.02 nM
IC50 (melanoma cell SK-MEL-5; Homo sapiens): 0.14 ± 0.02 nM
IC50 (melanoma cell M14; Homo sapiens): 0.25 ± 0.01 nM
IC50 ([3]; Homo sapiens): 3.3 ± 0.3 nM
IC50 ([4]; Homo sapiens): 0.07 ± 0.01 nM

CC(O)[C@@]12O[C@]13c1cc(O)c4c(c1N[C@H]2C#C/C=C\C#C[C@H]3O)C(=O)c1ccccc1C4=O (stereo partly drawn) [UCM, uncialamycin, reference compound]
IC50 [1]: 0.67 ± 0.03 nM
IC50 [2]: 0.51 ± 0.05 nM
IC50 (melanoma cell SK-MEL-5): 1.7 ± 0.1 nM
IC50 (melanoma cell M14): 0.47 ± 0.07 nM
IC50 [3]: 4.1 ± 0.2 nM
IC50 [4]: 0.22 ± 0.03 nM
